Data taken from patent US20250144067A1, “PERSONALIZED STARVATION THERAPY FOR CANCER” (Faeth Therapeutics, Inc., priority 2021, published 2025).
Counter-ions that a name gives are not always drawn.

Legend:
[1] = system: NCI-H292 lung cancer cells; assay: FDA drug screening, complete media vs cholesterol-free media without statin (TABLE 1); format: cell-based, human
[2] = system: NCI-H292 lung cancer cells; assay: FDA drug screening, complete media vs cholesterol-free media with simvastatin (TABLE 2); format: cell-based, human; conditions: for Cholesterol-free media + simvastatin (0.04 μM) / Complete Media: NCI-H292 cells
[3] = NCI-H292 cells, cholesterol-free media without statin, FDA drug library screen
[4] = NCI-H292 cells, complete media, FDA drug library screen
[5] = complete vs cholesterol-free media, >0 enhanced anti-cancer activity, about 0 neutral, <0 antagonist
[6] = drug in cholesterol-free media with simvastatin 0.04 μM
[7] = complete media vs cholesterol-free media + simvastatin (0.04 μM), >0 enhanced anti-cancer activity, about 0 neutral, <0 antagonist
[8] = Complete minus Cholesterol-free, >0 enhanced anti-cancer activity, about 0 neutral, <0 antagonist
[9] = NCI-H292 cells, cholesterol-free media without statin
[10] = FDA drug library screen, cholesterol-free media with simvastatin 0.04 μM
[11] = FDA drug library screen, complete media
[12] = NCI-H292 cells, FDA drug library screen, cholesterol-free media without statin
[13] = NCI-H292 cells, FDA drug library screen, complete media
[14] = FDA library drug in cholesterol-free media with simvastatin 0.04 μM
[15] = FDA library drug in complete media
[16] = Complete minus Cholesterol-free, greater than 0 enhanced anti-cancer activity, about 0 neutral, below 0 antagonists
[17] = NCI-H292 cells in cholesterol-free media without statin
[18] = NCI-H292 cells in complete media
[19] = complete media minus cholesterol-free media + simvastatin, >0 enhanced anti-cancer activity, about 0 neutral, <0 antagonist
[20] = complete vs cholesterol-free media, greater than 0 enhanced anti-cancer activity, about 0 neutral, below 0 antagonists
[21] = cholesterol-free media with simvastatin 0.04 μM, FDA drug library screen (TABLE 2)
[22] = complete media, FDA drug library screen (TABLE 2)

N[C@@H](Cc1c[nH]c2ccccc12)C(=O)O [L-Tryptophan]
Cholesterol-free [1, 3]: 1.009 | Complete [1, 4]: 1.103 | Difference [1, 5]: 0.09 | Cholesterol-free media + simvastatin (0.04 μM) [2, 6]: 1.157 | Complete Media ([2]; drug in complete media): 0.9202 | Difference [2, 7]: −0.24

CC(C)n1c(/C=C/C(O)CC(O)CC(=O)O)c(-c2ccc(F)cc2)c2ccccc21 (stereo not drawn) [Fluvastatin (sodium)]
Difference [1, 8]: −0.22 | Cholesterol-free [1, 9]: 0.3896 | Complete ([1]; NCI-H292 cells, complete media): 0.168 | Cholesterol-free media + simvastatin (0.04 μM) [2, 10]: 0.3266 | Complete Media [2, 11]: 0.199 | Difference [2, 7]: −0.13

C/C(O)=C(\C#N)C(=O)Nc1ccc(C(F)(F)F)cc1 [Teriflunomide]
Difference ([1]; Complete minus Cholesterol-free, greater than 0 enhanced anti-cancer activity, about 0 neutral, below 0 antagonist): −0.16 | Cholesterol-free [1, 12]: 1.092 | Complete [1, 13]: 0.9318 | Cholesterol-free media + simvastatin (0.04 μM) [2, 14]: 1.712 | Complete Media [2, 15]: 0.9665 | Difference [2, 7]: −0.75

CN(CCOc1ccc(NS(C)(=O)=O)cc1)CCc1ccc(NS(C)(=O)=O)cc1 [Dofetilide]
Difference [1, 16]: −0.48 | Cholesterol-free [1, 17]: 1.275 | Complete [1, 18]: 0.7972 | Cholesterol-free media + simvastatin (0.04 μM) [2, 10]: 0.6812 | Complete Media [2, 11]: 0.8394 | Difference [2, 19]: 0.16

Nc1ncc2ncn(CC3(OCP(=O)(O)O)CC3)c2n1 [Besifovir]
Cholesterol-free [1, 9]: 1.23 | Complete ([1]; NCI-H292 cells, complete media): 0.9121 | Difference [1, 20]: −0.32 | Cholesterol-free media + simvastatin (0.04 μM) ([2]; cholesterol-free media with simvastatin 0.04 μM, cell growth value in FDA drug screen): 0.9124 | Complete Media ([2]; complete media, cell growth value in FDA drug screen): 0.9846 | Difference [2, 19]: 0.07

CCN(CC)CCOC(=O)c1ccc(N)cc1Cl [Chloroprocaine (hydrochloride)]
Difference [1, 8]: −0.28 | Cholesterol-free [1, 9]: 1.161 | Complete ([1]; NCI-H292 cells, complete media): 0.8831 | Cholesterol-free media + simvastatin (0.04 μM) [2, 14]: 1.184 | Complete Media [2, 15]: 0.9029 | Difference [2, 7]: −0.28

Cl.N=C(N)NCCC[C@H](N)C(=O)O [L-Arginine (hydrochloride)]
Difference ([1]; Complete minus Cholesterol-free, […]): −0.16 | Cholesterol-free [1, 12]: 1.414 | Complete [1, 13]: 1.256 | Cholesterol-free media + simvastatin (0.04 μM) [2, 21]: 0.9293 | Complete Media [2, 22]: 0.9241 | Difference ([2]; complete media minus cholesterol-free media + simvastatin (0.04 μM), […]): −0.01

CCCCC/C=C\C/C=C\CCCCCCCC(=O)O [Linoleic acid]
Cholesterol-free [1, 3]: 1.134 | Complete [1, 4]: 1.557 | Difference [1, 5]: 0.42 | Cholesterol-free media + simvastatin (0.04 μM) [2, 10]: 1.399 | Complete Media [2, 11]: 1.847 | Difference [2, 19]: 0.45

Chlorpheniramine (maleate)
Difference [1, 16]: −0.51 | Cholesterol-free [1, 17]: 1.451 | Complete [1, 18]: 0.9428 | Cholesterol-free media + simvastatin (0.04 μM) [2, 21]: 1.426 | Complete Media [2, 22]: 1.414 | Difference ([2]; complete media minus cholesterol-free media + simvastatin (0.04 μM), >0 enhanced anti-cancer activity, about 0 neutral, <0 antagonist): −0.01

CC(=O)O[C@]1(C(C)=O)CC[C@H]2[C@@H]3C=C(C)C4=CC(=O)CC[C@]4(C)[C@H]3CC[C@@]21C [Megestrol acetate]
Difference [1, 8]: −0.26 | Cholesterol-free [1, 9]: 1.189 | Complete ([1]; NCI-H292 cells, complete media): 0.9289 | Cholesterol-free media + simvastatin (0.04 μM) [2, 14]: 1.252 | Complete Media [2, 15]: 0.9647 | Difference [2, 7]: −0.29

CS(=O)(=O)c1ccc(C2=C(c3ccccc3)C(=O)OC2)cc1 [Rofecoxib]
Cholesterol-free [1, 3]: 1.041 | Difference [1, 5]: 0.11 | Cholesterol-free media + simvastatin (0.04 μM) [2, 10]: 1.252 | Difference [2, 7]: −0.11

C#C[C@]1(O)CC[C@H]2[C@@H]3CCc4cc(OC)ccc4[C@H]3CC[C@@]21C [Mestranol]
Difference [1, 8]: −0.06 | Cholesterol-free [1, 3]: 0.9912 | Complete [1, 4]: 0.9277 | Cholesterol-free media + simvastatin (0.04 μM) [2, 14]: 1.197 | Complete Media [2, 15]: 0.9303 | Difference [2, 7]: −0.27

O=C(C1CCCCC1)N1CC(=O)N2CCc3ccccc3C2C1 (stereo not drawn) [Praziquantel]
Cholesterol-free [1, 9]: 1.485 | Complete ([1]; NCI-H292 cells, complete media): 1.043 | Difference [1, 20]: −0.44 | Cholesterol-free media + simvastatin (0.04 μM) [2, 14]: 1.644 | Complete Media [2, 15]: 1.108 | Difference [2, 7]: −0.54

CCN1CCN(C(=O)N[C@@H](C(=O)N[C@@H]2C(=O)N3C(C(=O)O)=C(CSc4nnnn4C)CS[C@H]23)c2ccc(O)cc2)C(=O)C1=O [Cefoperazone (sodium salt)]
Cholesterol-free [1, 3]: 1.002 | Difference [1, 5]: 0.17 | Cholesterol-free media + simvastatin (0.04 μM) [2, 6]: 1.213 | Complete Media ([2]; drug in complete media): 0.9749 | Difference [2, 7]: −0.24

CN1CCN(c2c(F)cc3c(=O)c(C(=O)O)cn4c3c2SCC4)CC1 [Rufloxacin hydrochloride]
Difference [1, 8]: −0.28 | Cholesterol-free [1, 9]: 1.291 | Complete ([1]; NCI-H292 cells, complete media): 1.016 | Cholesterol-free media + simvastatin (0.04 μM) [2, 10]: 0.949 | Complete Media [2, 11]: 1.098 | Difference [2, 19]: 0.15
